Source: patent US20250326771A1, “PIPERAZINE DERIVATIVES USEFUL IN HIV THERAPY” (VIIV HEALTHCARE COMPANY, priority 2022, published 2025)

Columns and labels:
[1] = system: Jurkat HIV-luciferase clones; experiment: Jurkat latency reversal assay; type: cell-based; conditions: Homo sapiens, 48 h; Jurkat latency reversal assay potency; read-out: Jurkat pEC50 (converted)
Method: Jurkat HIV-luciferase clones were maintained in RPMI medium 1640 (Gibco by Life Technologies) containing 10% (vol/vol) fetal bovine serum (SAFC/Sigma-Aldrich) and 25 units/mL penicillin, 25 units/mL streptomycin (Gibco by Life Technologies), and were split 1:4 every 3 to 4 days to maintain a cell density of ˜0.3 to 1 million cells/mL. The Jurkat clones were maintained with the addition of 500 nM EFV in the medium. Three Jurkat cell clones (C16, 115, and N6), each harboring one or two integrated HIV proviruses expressing the luciferase reporter gene, were added at equal amounts for a total of 5,000 cells per well to 384-well plates containing compound titrations. Dose-response testing was performed on compounds dissolved in dimethyl sulfoxide (DMSO; Fisher Scientific, Merelbeke, Belgium) dispensed in duplicate serial 3-fold, 14-point titrations using a D300e Digital Droplet Dispenser (Hewlett-Packard) to give final assay concentrations of 10 μM to […] in 50 μL of medium at 0.5% DMSO (vol/vol) final concentration. Cells and compound were incubated at 37° C. for 48 hours, unless otherwise indicated, followed by the addition of 20 μL of Steady-Glo® Luciferase (Promega). Luminescence resulting from the induction of the virally expressed luciferase was measured using an EnVision 2102 Multilabel Plate Reader (Perkin Elmer). Dose-response relationships were analyzed with GraphPad PRISM 6 using a four-parameter logistic regression model to calculate the concentration of compound that gives half-maximal response (EC50) and the maximal percent activation compared to the vehicle control.

cIAP2-BIR3 = cIAP2-BIR3 (Homo sapiens (Human), UniProt Q13489); experiment: BIR binding assay (FRET competition), cIAP2 BIR3
Sequence of cIAP2-BIR3 (Q13489 238-349): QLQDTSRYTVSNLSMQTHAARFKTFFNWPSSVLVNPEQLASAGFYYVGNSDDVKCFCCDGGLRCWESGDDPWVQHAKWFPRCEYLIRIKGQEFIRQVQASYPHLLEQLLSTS
Method: (§1) The BIR domain binding assays are FRET based competition assays that utilize His-tagged versions of each of the BIR2 and BIR3 domains from cIAP1, cIAP2, and XIAP (each domain assayed separately) each at a custom optimal concentration and a probe, 200 nM SMAC/DIABLO peptide […] labelled with AlexaFluor647 (part #crb 1110326h, Discovery Peptides). The assay is conducted in 50 mM HEPES, […], 1 mM CHAPS, 5% Glycerol, 1 mM DTT, in dI water with a final pH of 7.4 and final volume of 20 uL. Final protein domain concentrations are: 50 nM cIAP1-BIR3 (Part #APT-11-370 Reaction Biology), 100 nM XIAP-BIR3 (Part #APT-11-351 Reaction Biology), 200 nM XIAP-BIR2 (Part #APT-11-470 Reaction Biology), 325 nM cIAP2-BIR2 (Part #APT-11-489 Reaction Biology), 50 nM cIAP2-BIR3 (Part #APT-11-372 Reaction Biology), 325 nM cIAP1-BIR2 (Part #APT-11-487 Reaction Biology). Compounds were plated using a HP Tecan D300 printer in a final total volume of 202 nl and DMSO concentration normalized across the 15-point, 3-fold dilution series. Peptide and probe were prepared at 2× relative to the concentrations above in binding buffer, 10 uL added to the prepared compound plates, and incubated for 60 minutes. LANCE Eu-W1024 (part #AD0401 Perkin Elmer #, vendor) was prepared at 2× concentration in binding buffer for final concentration of 2 nM, 10 uL added to each well, and plates incubated for 30 minutes. Plates were read on an ENVISION multifunction plate reader with […] laser excitation to obtain the 615 nm/665 nm emission ratio as indicative of probe:protein proximity. Data was analyzed using GraphPad PRISM and curves fit using log(inhibitor) vs. response—Variable slope (four […] method to obtain IC50 and pIC50 values.

XIAP-BIR3 = XIAP-BIR3 (Homo sapiens (Human), UniProt P98170); experiment: BIR binding assay (FRET competition), XIAP BIR3
Sequence of XIAP-BIR3 (P98170 241-356): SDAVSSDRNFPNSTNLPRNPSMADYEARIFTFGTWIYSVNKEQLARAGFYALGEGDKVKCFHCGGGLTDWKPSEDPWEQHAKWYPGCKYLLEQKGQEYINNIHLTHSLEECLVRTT
Method: as §1

cIAP1-BIR3 = cIAP1-BIR3 (Homo sapiens (Human), UniProt Q13490); experiment: BIR binding assay (FRET competition), cIAP1 BIR3; conditions: for cIAP1 BIR3 vs BIR2 separation window: fold separation (FS) for cIAP1
Sequence of cIAP1-BIR3 (Q13490 253-363): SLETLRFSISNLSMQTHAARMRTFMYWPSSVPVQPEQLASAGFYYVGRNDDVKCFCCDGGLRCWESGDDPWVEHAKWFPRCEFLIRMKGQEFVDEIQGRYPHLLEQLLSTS
Method: as §1

cIAP1-BIR2 = cIAP1-BIR2 (Homo sapiens (Human), UniProt Q13490); experiment: BIR binding assay (FRET competition), cIAP1 BIR2
Sequence of cIAP1-BIR2 (Q13490 173-257): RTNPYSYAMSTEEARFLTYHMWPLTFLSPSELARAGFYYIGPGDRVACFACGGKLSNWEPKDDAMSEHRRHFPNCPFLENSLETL
Method: as §1

Compound	EC50 [1] [nM]	IC50 (cIAP2-BIR3) [nM]	IC50 (XIAP-BIR3) [nM]	IC50 (cIAP1-BIR3) [nM]	cIAP1 BIR3 vs BIR2 separation window (cIAP1-BIR3)	IC50 (cIAP1-BIR2) [nM]	cIAP2 BIR3 (pIC50) (cIAP2-BIR3; FRET competition binding)	XIAP BIR3 (pIC50) (XIAP-BIR3; FRET competition binding)	cIAP1 BIR3 (pIC50) (cIAP1-BIR3; FRET competition binding)
C[C@@H]1CN(CC(=O)N2CC(C)(C)c3ncc(Cc4ccc(C(F)(F)F)cc4)cc32)[C@@H](CN2CCO[C@H](COc3cccc(OC[C@@H]4CN(C[C@H]5CN[C@H](C)CN5CC(=O)N5CC(C)(C)c6ncc(Cc7ccc(C(F)(F)F)cc7)cc65)CCO4)c3)C2)CN1 [Compound 149]	63.1 to 316	31.6 to 501	31.6 to 501	31.6 to 501	+++ (10,000>FS>1,000)	10000 to 51300			
C[C@@H]1CN(CC(=O)N2CC(C)(C)c3[nH]c(=O)c(Cc4ccc(F)cc4)cc32)[C@@H](CN2CCC[C@@H](NC(=O)CCCCCCCCCCCCC(=O)N[C@@H]3CCCN(C[C@H]4CN[C@H](C)CN4CC(=O)N4CC(C)(C)c5[nH]c(=O)c(Cc6ccc(F)cc6)cc54)C3)C2)CN1 [Example 46, N1,N^14-bis((R)-1-(((2R,5R)-1-(2-(6-(4-fluorobenzyl)-3,3-dimethyl-5-oxo-2,3,4,5-tetrahydro-1H-pyrrolo[3,2-b]pyridin-1-yl)-2-oxoethyl)-5-methylpiperazin-2-yl)methyl)piperidin-3-yl)tetradecanediamide]	63.1 to 316				+++ (10,000>FS>1,000)	3160 to 10000	++ (7.80>pIC50>=7.50)	+ (7.50>pIC50>=6.30)	++ (7.80>pIC50>=7.50)
C[C@@H]1CN(CC(=O)N2CC(C)(C)c3ncc(Cc4ccc(Cl)cc4)cc32)[C@@H](CN2CCO[C@H](COc3cccc(OC[C@@H]4CN(C[C@H]5CN[C@H](C)CN5CC(=O)N5CC(C)(C)c6ncc(Cc7ccc(Cl)cc7)cc65)CCO4)c3)C2)CN1 [Compound 147]	12.6 to 63.1	15.8 to 31.6	31.6 to 501	15.8 to 31.6	+++ (10,000>FS>1,000)	3160 to 10000			
C[C@@H]1CN(CC(=O)N2CC(C)(C)c3ncc(Cc4ccc(F)cc4)cc32)[C@@H](CN2CCN(S(=O)(=O)c3cccc(S(=O)(=O)N4CCN(C[C@H]5CN[C@H](C)CN5CC(=O)N5CC(C)(C)c6ncc(Cc7ccc(F)cc7)cc65)[C@H](C)C4)c3)C[C@H]2C)CN1 [Example 36, 2,2′-((3R,3′R,6R,6′R)-(((2R,2′R)-(1,3-phenylenedisulfonyl)bis(2-methylpiperazine-4,1-diyl))bis(methylene))bis(3-methylpiperazine-6,1-diyl))bis(1-(6-(4-fluorobenzyl)-3,3-dimethyl-2,3-dihydro-1H-pyrrolo[3,2-b]pyridin-1-yl)ethan-1-one)]	0.49 to 12.6	15.8 to 31.6	31.6 to 501	15.8 to 31.6	+++ (10,000>FS>1,000)	3160 to 10000			
Cc1ccc(Cc2cnc3c(c2)N(C(=O)CN2C[C@@H](C)NC[C@@H]2CN2CCO[C@H](COc4cccc(OC[C@@H]5CN(C[C@H]6CN[C@H](C)CN6CC(=O)N6CC(C)(C)c7ncc(Cc8ccc(C)cc8)cc76)CCO5)c4)C2)CC3(C)C)cc1 [Compound 148]	12.6 to 63.1	15.8 to 31.6	31.6 to 501	15.8 to 31.6	++++ (FS>10,000)	10000 to 51300			
COc1cc(Cl)ccc1Cc1cc2c([nH]c1=O)C(C)(C)CN2C(=O)CN1C[C@@H](C)NC[C@@H]1CN1CCO[C@H](C(=O)NCc2ccc(CNC(=O)[C@@H]3CN(C[C@H]4CN[C@H](C)CN4CC(=O)N4CC(C)(C)c5[nH]c(=O)c(Cc6ccc(Cl)cc6OC)cc54)CCO3)cc2)C1 [Compound 169, (2S,2′S)-N,N′-(1,4-phenylenebis(methylene)) bis(4-(((2R,5R)-1-(2-(6-(4-chloro-2-methoxybenzyl)-3,3-dimethyl-5-oxo-2,3,4,5-tetrahydro-1H-pyrrolo[3,2-b]pyridin-1-yl)-2-oxoethyl)-5-methylpiperazin-2-yl)methyl)morpholine-2-carboxamide)]	12.6 to 63.1	1.38 to 7.94	31.6 to 501	7.94 to 15.8					
C[C@@H]1CN(CC(=O)N2CC(C)(C)c3ncc(Cc4ccc(Br)cc4)cc32)[C@@H](CN2CCO[C@H](COc3cccc(OC[C@@H]4CN(C[C@H]5CN[C@H](C)CN5CC(=O)N5CC(C)(C)c6ncc(Cc7ccc(Br)cc7)cc65)CCO4)c3)C2)CN1 [Compound 153]	63.1 to 316	31.6 to 501	31.6 to 501	31.6 to 501	+++ (10,000>FS>1,000)	10000 to 51300			
C[C@@H]1CN(CC(=O)N2CC(C)(C)c3[nH]c(=O)c(Cc4ccc(F)cc4)cc32)[C@@H](CN2CCO[C@H](COc3ccc(Cc4ccc(OC[C@@H]5CN(C[C@H]6CN[C@H](C)CN6CC(=O)N6CC(C)(C)c7[nH]c(=O)c(Cc8ccc(F)cc8)cc76)CCO5)cc4)cc3)C2)CN1 [Example 53, 1,1′-(2,2′-((3R,3′R,6R,6′R)-(((2S,2'S)-(((methylenebis(4,1-phenylene))bis(oxy))bis(methylene))bis(morpholine-2,4-diyl))bis(methylene))bis(3-methylpiperazine-6,1-diyl))bis(acetyl))bis(6-(4-fluorobenzyl)-3,3-dimethyl-1,2,3,4-tetrahydro-5H-pyrrolo[3,2-b]pyridin-5-one)]	12.6 to 63.1	31.6 to 501	31.6 to 501	31.6 to 501					
C[C@@H]1CN(CC(=O)N2CC(C)(C)c3[nH]c(=O)c(Cc4ccc(F)cc4)cc32)[C@@H](CN2CCO[C@H](COc3ccc(CCc4ccc(OC[C@@H]5CN(C[C@H]6CN[C@H](C)CN6CC(=O)N6CC(C)(C)c7[nH]c(=O)c(Cc8ccc(F)cc8)cc76)CCO5)cc4)cc3)C2)CN1 [Example 58, 1,1′-(2,2′-((3R,3′R,6R,6′R)-(((2S,2'S)-(((ethane-1,2-diylbis(4,1-phenylene))bis(oxy))bis(methylene))bis(morpholine-2,4-diyl))bis(methylene))bis(3-methylpiperazine-6,1-diyl))bis(acetyl))bis(6-(4-fluorobenzyl)-3,3-dimethyl-1,2,3,4-tetrahydro-5H-pyrrolo[3,2-b]pyridin-5-one)]	12.6 to 63.1	7.94 to 15.8	15.8 to 31.6	15.8 to 31.6					
C[C@@H]1CN(CC(=O)N2CC(C)(C)c3[nH]c(=O)c(Cc4ccc(F)cc4)cc32)[C@@H](CN2CCO[C@H](COc3ccc(C(C)(C)c4ccc(OC[C@@H]5CN(C[C@H]6CN[C@H](C)CN6CC(=O)N6CC(C)(C)c7[nH]c(=O)c(Cc8ccc(F)cc8)cc76)CCO5)cc4)cc3)C2)CN1 [Example 56, 1,1′-(2,2′-((3R,3′R,6R,6′R)-(((2S,2'S)-(((propane-2,2-diylbis(4,1-phenylene))bis(oxy))bis(methylene))bis(morpholine-2,4-diyl))bis(methylene))bis(3-methylpiperazine-6,1-diyl))bis(acetyl))bis(6-(4-fluorobenzyl)-3,3-dimethyl-1,2,3,4-tetrahydro-5H-pyrrolo[3,2-b]pyridin-5-one)]	12.6 to 63.1	31.6 to 501	31.6 to 501	31.6 to 501					
